Key:
[1] = wn = mass fraction of the nth substance listed; conditions: 101 kPa, Liquid; for mass density: Pycnometric method; for viscosity: Capillary tube (Ostwald / Ubbelohde) method
[2] = 101 kPa, Liquid; for viscosity: Capillary tube (Ostwald / Ubbelohde) method
[3] = mn = molality of the nth substance listed, in mol/kg; conditions: 101 kPa, Liquid, m2 = 0; for viscosity: Capillary tube (Ostwald / Ubbelohde) method

O=C[C@H](O)[C@@H](O)[C@H](O)[C@H](O)CO [D-glucose] + O
[1]
Conditions	mass density, w1 = 0.05 [kg/m3]	mass density, w1 = 0.1 [kg/m3]	mass density, w1 = 0.15 [kg/m3]	mass density, w1 = 0.2 [kg/m3]	viscosity, w1 = 0.05 [mPa·s]	viscosity, w1 = 0.1 [mPa·s]	viscosity, w1 = 0.15 [mPa·s]	viscosity, w1 = 0.2 [mPa·s]
293.15 K	1016.28	1034.79	1053.29	1072.41	–	–	–	–
298.15 K	1014.69	1033.15	1051.61	1070.31	0.9767	1.12	1.316	1.67
303.15 K	1013.08	1031.5	1049.92	1068.17	0.8605	0.9907	1.147	1.491
308.15 K	1011.47	1029.84	1048.37	1065.97	0.7697	0.8844	1.018	1.345
313.15 K	1009.85	1028.17	1046.62	1063.76	0.6945	0.7901	0.8925	1.21
318.15 K	–	1026.48	1044.93	1061.52	0.6334	0.7223	0.8097	1.112

O [water]
[2]
Conditions	viscosity [mPa·s]
298.15 K	0.8903
303.15 K	0.7973
308.15 K	0.719
313.15 K	0.6526
318.15 K	0.5972

Conditions	mass density [kg/m3]
[2], 308.15 K, Pycnometric method	994.07

O [water] + C[C@@H](O)[C@H](N)C(=O)O
[3]
Conditions	viscosity [mPa·s]
298.15 K	0.8903
303.15 K	0.7973
308.15 K	0.719
313.15 K	0.6526
318.15 K	0.5972

Conditions	mass density [kg/m3]
[3], 308.15 K, Pycnometric method	994.07

From the NIST ThermoML archive (doi:10.1016/j.jct.2013.01.008)
